Laboratory results as given in BindingDB's records for doi:10.1021/cc1000049 (Chemical Diversity Research Institute, 2010).
Values joined by “and” are separate entries in the source; they are usually repeats but may differ in a detail not shown here. Identical values can stand only once.

Target: 5-hydroxytryptamine receptor 6 (Homo sapiens, UniProt P50406)
Assay: Radioligand Binding Assay
Text: Radioligand binding assay using 5-HT6R.

Sequence of 5-hydroxytryptamine receptor 6 (P50406 whole entry): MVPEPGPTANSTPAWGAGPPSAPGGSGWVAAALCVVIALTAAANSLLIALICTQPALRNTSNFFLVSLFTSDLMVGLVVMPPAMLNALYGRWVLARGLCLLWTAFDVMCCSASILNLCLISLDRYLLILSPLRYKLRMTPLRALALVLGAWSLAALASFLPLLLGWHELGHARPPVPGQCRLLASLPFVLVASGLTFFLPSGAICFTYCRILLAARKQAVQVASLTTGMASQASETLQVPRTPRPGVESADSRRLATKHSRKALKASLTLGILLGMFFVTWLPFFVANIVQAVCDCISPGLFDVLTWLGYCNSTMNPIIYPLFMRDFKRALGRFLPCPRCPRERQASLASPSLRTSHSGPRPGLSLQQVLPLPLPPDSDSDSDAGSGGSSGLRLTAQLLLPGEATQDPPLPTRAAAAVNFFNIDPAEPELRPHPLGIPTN

IC50 | Ki [nM] | Structure (SMILES)
> 300 nM | – | CNc1nc2c(S(=O)(=O)c3ccccc3)nnn2c2ccccc12 [PSTQ Analog, 3{1,2}]
107 nM | 49.5 | CC(C)Nc1nc2c(S(=O)(=O)c3ccccc3)nnn2c2ccccc12 [PSTQ Analog, 3{1,3}]
15.2 nM | 7.04 | CCC(C)Nc1nc2c(S(=O)(=O)c3ccccc3)nnn2c2ccccc12 (stereo not drawn) [PSTQ Analog, 3{1,4}]
381 nM | – | O=S(=O)(c1ccccc1)c1nnn2c1nc(NCc1ccccc1)c1ccccc12 [PSTQ Analog, 3{1,12}]
128 nM | – | O=S(=O)(c1ccccc1)c1nnn2c1nc(NCc1ccccc1Cl)c1ccccc12 [PSTQ Analog, 3{1,13}]
75.4 nM and 28.4 nM | 13.2 | O=S(=O)(c1ccccc1)c1nnn2c1nc(NCC1CCCO1)c1ccccc12 (stereo not drawn) [PSTQ Analog, 3{1,21}]
– | 3.54 | O=S(=O)(c1ccccc1)c1nnn2c1nc(NCc1ccco1)c1ccccc12 [PSTQ Analog, 3{1,22}]
983 nM | – | O=S(=O)(c1ccccc1)c1nnn2c1nc(NCc1cccnc1)c1ccccc12 [PSTQ Analog, 3{1,23}]
– | 12.9 | O=S(=O)(c1ccccc1)c1nnn2c1nc(NC1CCCC1)c1ccccc12 [PSTQ Analog, 3{1,25}]
10.8 nM | 5.01 | O=S(=O)(c1ccccc1)c1nnn2c1nc(NC1CCCCC1)c1ccccc12 [PSTQ Analog, 3{1,26}]
6.17 nM | 2.86 | CC1CCCCC1Nc1nc2c(S(=O)(=O)c3ccccc3)nnn2c2ccccc12 (stereo not drawn) [PSTQ Analog, 3{1,27}]
59.5 nM | 27.6 | CC1CCC(Nc2nc3c(S(=O)(=O)c4ccccc4)nnn3c3ccccc23)CC1 (stereo not drawn) [PSTQ Analog, 3{1,28}]
> 30 nM | – | CN(C)c1nc2c(S(=O)(=O)c3ccccc3)nnn2c2ccccc12 [PSTQ Analog, 3{1,40}]
> 30 nM | – | CN(C)CCN(C)c1nc2c(S(=O)(=O)c3ccccc3)nnn2c2ccccc12 [PSTQ Analog, 3{1,42}]
– | 7.65 | CN(Cc1ccccc1)c1nc2c(S(=O)(=O)c3ccccc3)nnn2c2ccccc12 [PSTQ Analog, 3{1,43}]
164 nM | – | CCN(Cc1ccccc1)c1nc2c(S(=O)(=O)c3ccccc3)nnn2c2ccccc12 [PSTQ Analog, 3{1,44}]
42.1 nM | 19.5 | CC1CCCCN1c1nc2c(S(=O)(=O)c3ccccc3)nnn2c2ccccc12 (stereo not drawn) [PSTQ Analog, 3{1,49}]
606 nM | – | Cc1ccc(S(=O)(=O)c2nnn3c2nc(NCC(C)c2ccccc2)c2ccccc23)cc1 (stereo not drawn) [PSTQ Analog, 3{2,10}]
320 nM | – | Cc1ccc(S(=O)(=O)c2nnn3c2nc(NCc2ccccc2)c2ccccc23)cc1 [PSTQ Analog, 3{2,12}]
528 nM | – | Cc1ccc(S(=O)(=O)c2nnn3c2nc(NCc2ccccc2Cl)c2ccccc23)cc1 [PSTQ Analog, 3{2,13}]
740 nM | – | Cc1ccc(S(=O)(=O)c2nnn3c2nc(NC(C)c2ccccc2)c2ccccc23)cc1 (stereo not drawn) [PSTQ Analog, 3{2,20}]
1480 nM | – | Cc1ccc(S(=O)(=O)c2nnn3c2nc(NCC2CCCO2)c2ccccc23)cc1 (stereo not drawn) [PSTQ Analog, 3{2,21}]
572 nM | – | CCc1ccc(S(=O)(=O)c2nnn3c2nc(NC2CCCCC2C)c2ccccc23)cc1 (stereo not drawn) [PSTQ Analog, 3{3,27}]

IC50 | Ki [nM] | Structure (SMILES)
628 nM | – | CC(Nc1nc2c(S(=O)(=O)c3ccc(Cl)cc3)nnn2c2ccccc12)c1ccccc1 (stereo not drawn) [PSTQ Analog, 3{6,20}]
1430 nM | – | CCc1ccccc1Nc1nc2c(S(=O)(=O)c3ccc(Br)cc3)nnn2c2ccccc12 [PSTQ Analog, 3{7,31}]
704 nM | – | Cc1cccc(Nc2nc3c(S(=O)(=O)c4ccc(Br)cc4)nnn3c3ccccc23)c1C [PSTQ Analog, 3{7,37}]
35.9 nM | 16.7 | CCC(C)Nc1nc2c(S(=O)(=O)c3cc(C)ccc3C)nnn2c2ccccc12 (stereo not drawn) [PSTQ Analog, 3{8,4}]
770 nM | – | CCc1ccccc1Nc1nc2c(S(=O)(=O)c3cc(C)ccc3C)nnn2c2ccccc12 [PSTQ Analog, 3{8,31}]
2010 nM | – | Cc1ccc(S(=O)(=O)c2nnn3c2nc(NCCc2ccccc2)c2ccccc23)cc1C [PSTQ Analog, 3{9,9}]
602 nM | – | Cc1ccc(S(=O)(=O)c2nnn3c2nc(NCc2ccccc2C)c2ccccc23)cc1C [PSTQ Analog, 3{9,13}]
356 nM | – | Cc1ccc(S(=O)(=O)c2nnn3c2nc(NC(C)c2ccccc2)c2ccccc23)cc1C (stereo not drawn) [PSTQ Analog, 3{9,20}]
779 nM | – | Cc1ccc(S(=O)(=O)c2nnn3c2nc(NCC2CCCO2)c2ccccc23)cc1C (stereo not drawn) [PSTQ Analog, 3{9,21}]
295 nM | – | CCc1ccccc1Nc1nc2c(S(=O)(=O)c3ccc(C)c(C)c3)nnn2c2ccccc12 [PSTQ Analog, 3{9,31}]
971 nM | – | CCN(Cc1ccccc1)c1nc2c(S(=O)(=O)c3ccc(C)c(C)c3)nnn2c2ccccc12 [PSTQ Analog, 3{9,44}]
1310 nM | – | Cc1ccc(S(=O)(=O)c2nnn3c2nc(N2CCCCCC2)c2ccccc23)cc1C [PSTQ Analog, 3{9,53}]
1200 nM | – | Cc1ccc(S(=O)(=O)c2nnn3c2nc(N2CCN(c4ccccn4)CC2)c2ccccc23)cc1C [PSTQ Analog, 3{9,58}]
2180 nM | – | Cc1cc(C)c(S(=O)(=O)c2nnn3c2nc(NC(C)C)c2ccccc23)c(C)c1 [PSTQ Analog, 3{10,3}]
964 nM | – | CCC(C)Nc1nc2c(S(=O)(=O)c3c(C)cc(C)cc3C)nnn2c2ccccc12 (stereo not drawn) [PSTQ Analog, 3{10,4}]
1460 nM | – | Cc1cc(C)c(S(=O)(=O)c2nnn3c2nc(NCC2CCCO2)c2ccccc23)c(C)c1 (stereo not drawn) [PSTQ Analog, 3{10,21}]
1000 nM | – | Cc1cccc(Nc2nc3c(S(=O)(=O)c4c(C)cc(C)cc4C)nnn3c3ccccc23)c1 [PSTQ Analog, 3{10,32}]
670 nM | – | COc1cccc(Nc2nc3c(S(=O)(=O)c4c(C)cc(C)cc4C)nnn3c3ccccc23)c1 [PSTQ Analog, 3{10,33}]
1800 nM | – | O=S(=O)(c1ccccc1)c1nnn2c1nc(NCC1CCCO1)c1cc(Cl)ccc12 (stereo not drawn) [PSTQ Analog, 3{12,21}]
5740 nM | – | O=S(=O)(c1ccccc1)c1nnn2c1ncc1ccccc12 [PSTQ Analog, 8]
1050 nM | – | CCSc1nc2c(S(=O)(=O)c3ccccc3)nnn2c2ccccc12 [PSTQ Analog, 9]
1370 nM | – | COCCOc1nc2c(S(=O)(=O)c3ccccc3)nnn2c2ccccc12 [PSTQ Analog, 10]
